Experimental data published in PubChem BioAssay AID2060513 (Molecular Pharmacology Branch, DTP, NCI, 2025).
Several values for one entry are separate records, joined by “and”; a condition that tells them apart may be missing. Identical values can stand only once.

System: 299254-011-R-J1-PDC complex spheroids viability
Experiment: Anticancer human tumor 299254-011-R-J1-PDC patient-derived melanoma cell line growth inhibition [GQUAD]
Conditions: for viability, T/C: stronger effect = lower value; active means viability on the fitted dose curve at most 10% of control; inactive means the rest
From the text: DNA G-quadruplex Stabilizer Agents in Combinations in Complex Spheroids
A high-throughput screen of multi-cell type tumor spheroids was designed to identify active combinations of DNA G-quadruplex stabilizer agents and targeted small molecules. Complex spheroids include a stromal component modeled by human endothelial cells (HUVEC) and fibroblasts modeled by human mesenchymal stem cells (MSCs). The concentration ranges selected for each drug and investigational agent were based upon clinically achievable concentrations if the clinical Cmax of the agent was known.
Compounds. The drugs and investigational agents: pidnarulex (CX-5461; NSC782164), APTO-253 (NSC789042), BRACO-19 (NSC847499), peposertib (NSC802822), ceralasertib (NSC780249), elimusertib (NSC800525), camonsertib (NSC841442), AZD-1390 (NSC803789), olaparib (NSC753686), talazoparib (NSC767125), ART-558 (NSC835418), sotorasib (NSC818433), MRTX-1133 (NSC836407), SN-38 (NSC673596), topotecan (NSC609699), etoposide (NSC141540), doxorubicin (NSC123127), gemcitabine (NSC613327), 5-fluorouracil (NSC19893), paclitaxel (NSC125973), vemurafenib (NSC761431), panobinostat (NSC761190), R-306465 (JNJ-16241199; NSC773264), adavosertib (NSC754352), TP-3654 (NSC805149), carboplatin (NSC241240), KSQ-4279 (NSC840948), and staurosporine (NSC755774) were obtained from the National Cancer Institute (NCI) Developmental Therapeutics Program Chemical Repository (34). The FDA-approved anticancer drug set is available from the NCI Developmental Therapeutics Program. […] The stock solutions were prepared in dimethyl sulfoxide (DMSO, Sigma-Aldrich, St. Louis, MO, cat. D2650) at 800-fold the tested concentration and stored at -70 degrees C prior to their use. All drugs and investigational agents were tested over a range starting from a high concentration at or near the clinical Cmax and decreasing in half-log increments. If the clinical Cmax for an agent had not been determined, the highest concentration tested was 10 microM.
2.3 Cell Culture. All cells were maintained in an incubator at 37 degrees C and 5% CO2 with 95% humidity. The PDC lines were cultured according to standard operating procedures established by the NCI PDMR. All PDCs were thawed and cultured in Matrigel-coated flasks prepared with a working solution of 1X Ham's F-12 nutrient mix, without supplementation (Invitrogen, cat. 11765054), 100 U/mL penicillin-streptomycin (Invitrogen, cat. 15140122), and 2.5% Matrigel (Corning Inc., cat. 354248) for the first three passages. The 857933-349-R-J2-PDC line was cultured in 6C/Colon 1B media, which includes advanced DMEM/F-12 (Thermo Fisher Scientific, cat. 12634028), 10 mM HEPES (Thermo Fisher Scientific, cat. 15630080), 1X GlutaMAX supplement (Thermo Fisher Scientific, cat. 35050061), 0.1 mg/mL primocin (InvivoGen, cat. ant-pm-2), 10% defined fetal bovine serum, heat inactivated (HyClone Laboratories Inc., cat. SH30070.03HI), 50% L-WRN conditioned media (ATCC, cat. CRL-3276), 1.25 mM N-Acetyl-L-cysteine (Sigma-Aldrich, cat. A9165), 10 mM nicotinamide (Sigma-Aldrich, cat. N0636), 1X B-27 supplement (Thermo Fisher Scientific, cat. 17504044), 1X N-2 supplement (Thermo Fisher Scientific, cat. 17502048), 10 microM Y-27632 dihydrochloride (Tocris Bioscience, cat. 1254), and 50 ng/mL human EGF recombinant protein (Thermo Fisher Scientific, cat. PHG0311). The 485176-168-R4-J1-PDC line was cultured in Panc media, which includes all 6C/Colon 1B media components plus 100 ng/mL human FGF-10 (Thermo Fisher Scientific, cat. 100-26), 500 nM SB-431542 (Selleckchem, cat. S1067), and gastrin (Tocris, cat. 3006).
[…]
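Further: spheroids exposed to the agents for seven days before readout.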
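Wherever viability, T/C is given: percent viability relative to DMSO vehicle control wells = 100%.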

CC1COCCN1c1cc(C2(O)CC3CCC(C2)O3)c2cnn(-c3ccn[nH]3)c2n1 (centres undefined)
active: viability, T/C (compound 3.16 µM) 10.2% and 10.5% and 10.9% | viability, T/C (compound 10 µM) 4.19% and 8.01% and 5.02%
inactive: viability, T/C (compound 0.0316 µM) 116% and 87.6% and 93.3% | viability, T/C (compound 0.1 µM) 42.7% and 48.7% and 67.2% | viability, T/C (compound 0.316 µM) 23.7% and 29.9% and 29.5% | viability, T/C (compound 1 µM) 12.7% and 12.4% and 18.8%
92.6 nM and 99.2 nM and 173 nM: IC50 (curve of compound)

Cc1[nH]c2ccccc2c1CCNCc1ccc(/C=C/C(=O)NO)cc1 + Cc1cnc(CNC(=O)c2c(=O)c3ccc(N4CCCN(C)CC4)nc3n3c2sc2ccccc23)cn1
139 nM: IC50 (curve of first compound, second compound 0.0316 µM)
inactive: viability, T/C (second compound 0.0316 µM, first compound 0.000999 µM) 92.3% | viability, T/C (second compound 0.0316 µM, first compound 0.00316 µM) 84.4% | viability, T/C (second compound 0.0316 µM, first compound 0.00999 µM) 94.6% | viability, T/C (second compound 0.0316 µM, first compound 0.0316 µM) 80.3% | viability, T/C (second compound 0.0316 µM, first compound 0.0999 µM) 65.2% | viability, T/C (second compound 0.0316 µM, first compound 0.316 µM) 14.4% | viability, T/C (second compound 0.1 µM, first compound 0.000999 µM) 92.7% | viability, T/C (second compound 0.1 µM, first compound 0.00316 µM) 106% | viability, T/C (second compound 0.1 µM, first compound 0.00999 µM) 97.1% | viability, T/C (second compound 0.1 µM, first compound 0.0316 µM) 80.7% | viability, T/C (second compound 0.1 µM, first compound 0.0999 µM) 87.6% | viability, T/C (second compound 0.1 µM, first compound 0.316 µM) 10.7% | viability, T/C (second compound 0.316 µM, first compound 0.000999 µM) 107% | viability, T/C (second compound 0.316 µM, first compound 0.00316 µM) 92.4% | viability, T/C (second compound 0.316 µM, first compound 0.00999 µM) 97.3% | viability, T/C (second compound 0.316 µM, first compound 0.0316 µM) 91.3% | viability, T/C (second compound 0.316 µM, first compound 0.0999 µM) 50.4% | viability, T/C (second compound 0.316 µM, first compound 0.316 µM) 10.3% | viability, T/C (second compound 1 µM, first compound 0.000999 µM) 86.5% | viability, T/C (second compound 1 µM, first compound 0.00316 µM) 103% | viability, T/C (second compound 1 µM, first compound 0.00999 µM) 79.7% | viability, T/C (second compound 1 µM, first compound 0.0316 µM) 63.4% | viability, T/C (second compound 1 µM, first compound 0.0999 µM) 28.6% | viability, T/C (second compound 3.16 µM, first compound 0.000999 µM) 82.8% | viability, T/C (second compound 3.16 µM, first compound 0.00316 µM) 77.7% | viability, T/C (second compound 3.16 µM, first compound 0.00999 µM) 68.4% | viability, T/C (second compound 3.16 µM, first compound 0.0316 µM) 63.5% | viability, T/C (second compound 3.16 µM, first compound 0.0999 µM) 28% | viability, T/C (second compound 10 µM, first compound 0.000999 µM) 26.3%
active: viability, T/C (second compound 1 µM, first compound 0.316 µM) 4.65% | viability, T/C (second compound 3.16 µM, first compound 0.316 µM) 0.2% | viability, T/C (second compound 10 µM, first compound 0.00316 µM) 8.63% | viability, T/C (second compound 10 µM, first compound 0.00999 µM) 0.47% | viability, T/C (second compound 10 µM, first compound 0.0316 µM) 0.44% | viability, T/C (second compound 10 µM, first compound 0.0999 µM) 0.35% | viability, T/C (second compound 10 µM, first compound 0.316 µM) 0.26%
101 nM: IC50 (curve of first compound, second compound 0.316 µM)
172 nM: IC50 (curve of first compound, second compound 0.1 µM)
45.5 nM: IC50 (curve of first compound, second compound 3.16 µM)
48.4 nM: IC50 (curve of first compound, second compound 1 µM)
< 0.999 nM: IC50 (curve of first compound, second compound 10 µM)
